Measurements as given in patent US4049802A (Research Corporation, priority 1975, dated 1977).
In brackets after ≈: the same amount, converted by molar mass. Like-named read-outs stand apart in the source and are kept apart here.

Key:
[1] = Minimum inhibitory concentration (growth at drug concentrations) and effect of para-aminobenzoic acid (PABA), Table II; assay type: cell-based
Pseudomonas = assay: Minimum inhibitory concentrations vs Pseudomonas, Table V; assay type: cell-based

Row | SMILES | Growth (minimum inhibitory concentration series) ([1]; 0.05 μ mole/ml drug) | Growth (minimum inhibitory concentration series) ([1]; 0.1 μ mole/ml drug) | Growth (minimum inhibitory concentration series) ([1]; 0.5 μ mole/ml drug) | Growth (minimum inhibitory concentration series) ([1]; 1.0 μ mole/ml drug) | PAB to Block (Pseudomonas) | MIC (Pseudomonas; Pseudomonas, read-out: Minimum Inhibitory Concentration vs Pseudomonas) [µM] | Growth (minimum inhibitory concentration series) ([1]; 0.4 μ mole/ml drug) | Growth, drug + PABA ([1]; 0.5 μ mole/ml drug + PABA 0.05) | Growth (minimum inhibitory concentration series) ([1]; 0.6 μ mole/ml drug) | Growth (minimum inhibitory concentration series) ([1]; 0.8 μ mole/ml drug) | Growth, drug + PABA ([1]; 1.0 μ mole/ml drug + PABA 0.1) | Growth (minimum inhibitory concentration series) ([1]; 2.0 μ mole/ml drug) | Growth, drug + PABA ([1]; 2.0 μ mole/ml drug + PABA 0.01) | Growth, drug + PABA ([1]; 2.0 μ mole/ml drug + PABA 0.1) | Growth, drug + PABA ([1]; 2.0 μ mole/ml drug + PABA 0.2) | Minimum Inhibitory Concentration vs Pseudomonas (Pseudomonas; listed as Na Sulfadiazine) [μM/L] | PAB to Block (Pseudomonas; listed as Na Sulfadiazine)
1 | CC(=O)[O-].CC(=O)[O-].[Zn+2] [Zinc Acetate, zinc acetate] | + | + | + | + |  |  |  |  |  |  |  |  |  |  |  |  | 
2 | NCc1ccc(S(N)(=O)=O)cc1 [Sulfamylon] |  |  |  |  | neg. | 500 (≈ 93.1 µg/mL) |  |  |  |  |  |  |  |  |  |  | 
3 | Nc1ccc(S(=O)(=O)Nc2ncccn2)cc1 [Sodium Sulfadiazine, sodium sulfadiazine] |  | + | + | - |  |  | + | + | + | - | + | - | + | + | + | 80 | 1/200
